Laboratory results: US9850283B2, “Macrocyclic inhibitors of the PD-1/PD-L1 and CD80(B7-1)/PD-L1 protein/protein interactions” (BRISTOL-MYERS SQUIBB COMPANY, priority 2013, dated 2017)
Starred links: 1 amine or outer side, 2 acyl side, 3 side chain; linkers in the order of their positions; H or OH if unused. Positions of bridges follow the written chain, without caps; N, C: chain ends. Non-standard residues stand in square brackets, D forms with d. Residues, ends and D or L forms follow the SMILES beside them. ξ: configuration not given here. X13 = COc1ccc2c(O[C@@H]3C[C@@H](C(=O)[*:2])N([*:1])C3)nccc2c1; X6 = O=C([C@H](Cc1c(-c2ccc(F)cc2)[nH]c2ccccc12)N[*:1])[*:2]; X8 = COc1cccc(-c2[nH]c3ccccc3c2C[C@H](N[*:1])C(=O)[*:2])c1; X9 = O=C([C@@H]1C[C@@H](Oc2nc3ccccc3cc2Br)CN1[*:1])[*:2]; Trp(1-CH2COOH) = N[C@@H](Cc1cn(CC(=O)O)c2ccccc12)C(=O)O; Trp(2-Ph) = N[C@@H](Cc1c(-c2ccccc2)[nH]c2ccccc12)C(=O)O; cisHyp = O=C(O)[C@@H]1C[C@H](O)CN1; Hyp = O=C(O)[C@@H]1C[C@@H](O)CN1; Pip(4-aza) = O=C(O)[C@@H]1CNCCN1; dNMeNle = CCCC[C@@H](NC)C(=O)O; NMeNle = CCCC[C@H](NC)C(=O)O; ξR = N=C(N)NCCCC(N)C(=O)O; NMeA = CN[C@@H](C)C(=O)O; Dab = NCC[C@H](N)C(=O)O; Dap = NC[C@H](N)C(=O)O

Tests used:
[1] = biological target: T1, Human PD-L1/PD-1 (Homo sapiens, UniProt Q9NZQ7); test: HTRF PD-1-Ig/PD-L1-His binding assay (human PD-L1); conditions: cluster symbol; read-out: HTRF IC50 cluster
T1 construct: made in house; host or cells: HEK293T
Outline: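 Readout: time-resolved FRET between Eu cryptate-labeled anti-Ig (1 nM final) and APC-labeled anti-His (20 nM final) antibodies. These detect interaction of Fc-fused PD-1 with His-tagged human PD-L1 in dPBS containing 0.1% BSA and 0.05% Tween-20.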

[2] = biological target: T2, LK35.2-hPD-L1 cells / PE-labeled PD-1-Ig (Homo sapiens, UniProt Q9NZQ7); test: LK35.2-hPD-L1 cell binding high-content screening assay; type: cell-based; conditions: cell binding assay, cell line not given; cluster symbol; read-out: CBA IC50 cluster
T2 construct: expressed in transfected cells; host or cells: LK35.2 mouse B cell line
Outline: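 Fluorescent PD-1-Ig binding to PD-L1-expressing LK35.2 cells, imaged after washing. Conditions: 1 nM PE-PD-1-Ig, 37 °C, 1 h, RPMI with 10% fetal calf serum.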

T1 sequence (Q9NZQ7 with tags, fused parts or gaps): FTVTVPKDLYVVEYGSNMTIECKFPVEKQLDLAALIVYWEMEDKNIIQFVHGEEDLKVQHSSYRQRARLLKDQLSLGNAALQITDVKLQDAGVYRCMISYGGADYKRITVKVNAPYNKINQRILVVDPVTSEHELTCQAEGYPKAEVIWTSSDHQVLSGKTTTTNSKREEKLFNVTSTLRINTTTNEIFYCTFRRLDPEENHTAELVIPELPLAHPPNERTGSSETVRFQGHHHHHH
T2 sequence (Q9NZQ7 19-290): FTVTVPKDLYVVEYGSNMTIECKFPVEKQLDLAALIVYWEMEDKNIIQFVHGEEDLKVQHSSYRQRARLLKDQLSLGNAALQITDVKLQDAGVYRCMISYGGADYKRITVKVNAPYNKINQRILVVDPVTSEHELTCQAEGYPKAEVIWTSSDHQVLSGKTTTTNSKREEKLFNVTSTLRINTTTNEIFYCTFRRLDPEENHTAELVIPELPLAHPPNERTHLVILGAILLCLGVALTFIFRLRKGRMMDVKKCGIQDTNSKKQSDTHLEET

Row | SMILES | IC50 [1] [nM] | IC50 [2] [nM]
1 | CCCC[C@H]1C(=O)N(C)[C@@H](CCCC)C(=O)N[C@@H](CC(C)C)C(=O)N[C@H](C(=O)NCC(N)=O)CSCC(=O)N[C@@H](Cc2ccc(O)cc2)C(=O)N(C)[C@@H](C)C(=O)N[C@@H](CC(N)=O)C(=O)N2CCC[C@H]2C(=O)N[C@@H](CN)C(=O)N[C@@H](CC(C)C)C(=O)N2C[C@H](Oc3nccc4cc(OC)ccc34)C[C@H]2C(=O)N[C@@H](Cc2c[nH]c3ccccc23)C(=O)N[C@@H](CCN)C(=O)N[C@@H](Cc2c[nH]c3ccccc23)C(=O)N1C [Example 6048] ({CH2CO}-Y[NMeA]NP[Dap]L[X13]W[Dab]W[NMeNle][NMeNle]LCG-NH2; thioether N-14) | 6.76 to 30.3 | 4.78 to 72.9
2 | CCCC[C@H]1C(=O)N(C)[C@@H](CCCC)C(=O)N[C@@H](CC(C)C)C(=O)N[C@H](C(=O)NCC(N)=O)CSCC(=O)N[C@@H](Cc2ccc(O)cc2)C(=O)N(C)[C@@H](C)C(=O)N[C@@H](CC(N)=O)C(=O)N2CCC[C@H]2C(=O)N[C@@H](CN)C(=O)N[C@@H](CC(C)C)C(=O)N2CCNC[C@H]2C(=O)N[C@@H](Cc2c[nH]c3ccccc23)C(=O)N[C@@H](CCN)C(=O)N[C@@H](Cc2c[nH]c3ccccc23)C(=O)N1C [Example 6050] ({CH2CO}-Y[NMeA]NP[Dap]L[Pip(4-aza)]W[Dab]W[NMeNle][NMeNle]LCG-NH2; thioether N-14) | 0.385 to 6.74 | 4.78 to 72.9
3 | CCCC[C@H]1C(=O)N(C)[C@@H](CCCC)C(=O)NC(CCCNC(=N)N)C(=O)N[C@H](C(=O)NCC(N)=O)CSCC(=O)N[C@@H](Cc2ccc(O)cc2)C(=O)N(C)[C@@H](C)C(=O)N[C@@H](CC(N)=O)C(=O)N2CCC[C@H]2C(=O)N[C@@H](Cc2cnc[nH]2)C(=O)N[C@@H](CC(C)C)C(=O)N2CCC[C@H]2C(=O)N[C@@H](Cc2c[nH]c3ccccc23)C(=O)N[C@@H](CO)C(=O)N[C@@H](Cc2c(-c3ccccc3)[nH]c3ccccc23)C(=O)N1C (some centres unmarked) [Example 7001] ({CH2CO}-Y[NMeA]NPHLPWS[Trp(2-Ph)][NMeNle][NMeNle][ξR]CG-NH2; thioether N-14) | 0.385 to 6.74 | 0.158 to 4.71
4 | CCCC[C@H]1C(=O)N(C)[C@@H](CCCC)C(=O)NC(CCCNC(=N)N)C(=O)N[C@H](C(=O)NCC(N)=O)CSCC(=O)N[C@@H](Cc2ccc(O)cc2)C(=O)N(C)[C@@H](C)C(=O)N[C@@H](CC(N)=O)C(=O)N2CCC[C@H]2C(=O)N[C@@H](CN)C(=O)N[C@@H](CC(C)C)C(=O)N2C[C@H](O)C[C@H]2C(=O)N[C@@H](Cc2c[nH]c3ccccc23)C(=O)N[C@@H](CO)C(=O)N[C@@H](Cc2c(-c3ccc(F)cc3)[nH]c3ccccc23)C(=O)N1C (some centres unmarked) [Example 7002] ({CH2CO}-Y[NMeA]NP[Dap]L[Hyp]WS[X6][NMeNle][NMeNle][ξR]CG-NH2; thioether N-14) | 0.385 to 6.74 | 0.158 to 4.71
5 | CCCC[C@H]1C(=O)N(C)[C@@H](CCCC)C(=O)NC(CCCNC(=N)N)C(=O)N[C@H](C(=O)NCC(N)=O)CSCC(=O)N[C@@H](Cc2ccc(O)cc2)C(=O)N(C)[C@@H](C)C(=O)N[C@@H](CC(N)=O)C(=O)N2CCC[C@H]2C(=O)N[C@@H](CN)C(=O)N[C@@H](CC(C)C)C(=O)N2C[C@H](O)C[C@H]2C(=O)N[C@@H](Cc2c[nH]c3ccccc23)C(=O)N[C@@H](CO)C(=O)N[C@@H](Cc2c(-c3cccc(OC)c3)[nH]c3ccccc23)C(=O)N1C (some centres unmarked) [Example 7003] ({CH2CO}-Y[NMeA]NP[Dap]L[Hyp]WS[X8][NMeNle][NMeNle][ξR]CG-NH2; thioether N-14) | 0.385 to 6.74 | 4.78 to 72.9

Next, values leading:

Row | IC50 [1] [nM] | IC50 [2] [nM] | SMILES
6 | 0.385 to 6.74 | 0.158 to 4.71 | CCCC[C@@H]1C(=O)N[C@@H](CC(C)C)C(=O)N[C@H](C(=O)NCC(N)=O)CSCC(=O)N[C@@H](Cc2ccc(O)cc2)C(=O)N(C)[C@@H](C)C(=O)N[C@@H](CC(N)=O)C(=O)N2CCC[C@H]2C(=O)N[C@@H](CN)C(=O)N[C@@H](CC(C)C)C(=O)N2C[C@@H](O)C[C@H]2C(=O)N[C@@H](Cc2c[nH]c3ccccc23)C(=O)N[C@@H](CCN)C(=O)N[C@@H](Cc2cn(CC(=O)O)c3ccccc23)C(=O)N(C)[C@@H](CCCC)C(=O)N1C [Example 6046] ({CH2CO}-Y[NMeA]NP[Dap]L[cisHyp]W[Dab][Trp(1-CH2COOH)][NMeNle][dNMeNle]LCG-NH2; thioether N-14)
7 | 0.385 to 6.74 | 4.78 to 72.9 | CCCC[C@H]1C(=O)N(C)[C@@H](CCCC)C(=O)N[C@@H](CC(C)C)C(=O)N[C@H](C(=O)NCC(N)=O)CSCC(=O)N[C@@H](Cc2ccc(O)cc2)C(=O)N(C)[C@@H](C)C(=O)N[C@@H](CC(N)=O)C(=O)N2CCC[C@H]2C(=O)N[C@@H](CN)C(=O)N[C@@H](CC(C)C)C(=O)N2C[C@H](Oc3nc4ccccc4cc3Br)C[C@H]2C(=O)N[C@@H](Cc2c[nH]c3ccccc23)C(=O)N[C@@H](CCN)C(=O)N[C@@H](Cc2c[nH]c3ccccc23)C(=O)N1C [Example 6049] ({CH2CO}-Y[NMeA]NP[Dap]L[X9]W[Dab]W[NMeNle][NMeNle]LCG-NH2; thioether N-14)
